Results: BindingDB's records for doi:10.1074/jbc.M113.533562 (Case Western Reserve University, 2014)

Columns and labels:
Beta-lactamase OXA-1 = Beta-lactamase OXA-1 (Escherichia coli, UniProt P13661); assay: Kinetic Assay; details: pH 7.2
Procedure: (§1) Steady-state kinetics were performed on an Agilent 8453 diode array spectrophotometer (Palo Alto, CA) in 50 mM sodium phosphate buffer (pH 7.2) supplemented with 20 mM NaHCO3.

Oxa40 = Oxa40 (Acinetobacter baumannii, UniProt Q8RLA6); assay: Kinetic Assay; details: pH 7.2
Sequence of Oxa40 (Q8RLA6 whole entry): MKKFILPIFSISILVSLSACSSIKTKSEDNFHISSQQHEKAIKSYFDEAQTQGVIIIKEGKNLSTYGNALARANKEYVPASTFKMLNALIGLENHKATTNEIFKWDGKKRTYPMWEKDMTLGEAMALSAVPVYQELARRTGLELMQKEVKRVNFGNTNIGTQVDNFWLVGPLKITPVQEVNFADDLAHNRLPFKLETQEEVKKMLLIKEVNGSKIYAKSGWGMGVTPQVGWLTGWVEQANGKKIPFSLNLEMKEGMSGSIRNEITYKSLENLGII
Procedure: as §1

Sequence of Beta-lactamase OXA-1 (P13661 whole entry): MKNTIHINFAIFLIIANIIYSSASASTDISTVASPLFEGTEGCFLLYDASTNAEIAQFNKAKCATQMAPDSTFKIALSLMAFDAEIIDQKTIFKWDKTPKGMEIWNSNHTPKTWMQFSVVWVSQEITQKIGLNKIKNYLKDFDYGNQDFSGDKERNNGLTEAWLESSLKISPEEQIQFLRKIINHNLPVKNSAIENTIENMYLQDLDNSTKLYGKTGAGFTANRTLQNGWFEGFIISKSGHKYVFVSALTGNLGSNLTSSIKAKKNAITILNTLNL

SMILES | IC50 (Beta-lactamase OXA-1) [nM] | Ki (Beta-lactamase OXA-1) [nM] | IC50 (Oxa40) [nM] | Ki (Oxa40) [nM]
O=C(O)C1=CS[C@@H]2/C(=C\c3cc4n(n3)CSC4)C(=O)N12 [Penem 1] | 30 | 50 | 150 | 30
O=C(O)C1=CS[C@@H]2/C(=C\c3cn4c(n3)COCC4)C(=O)N12 [Penem 3] | 60 | 380 | 160 | 150
